# Test results as given in patent US11679108B2, “Aromatic heterocyclic compound, and pharmaceutical composition and use thereof” (GUANGZHOU HENOVCOM BIOSCIENCE CO., LTD., priority 2018, dated 2023).
# Biological target: T1, ATX in human plasma (Homo sapiens, UniProt Q13822)
# T1 construct: blank plasma was derived from at least 6 individual people; from tissue; host or cells: human plasma (pooled from at least 6 individuals)
# Assay: Analysis in vitro: detection of LPA in human plasma for screening activity (LPA 18:2 by LC/MS/MS)
# Type: biochemical
# Conditions: incubated 2 hours at 37° C., LPA 18:2 detected by LC/MS/MS
# Excerpt: Analysis In Vitro: Detection of LPA in Human Plasma for Screening Activity
# Principle: LPC in plasma being used as a substrate, the produced LPA 18:2 (LPA 17:0 as an internal standard) is detected by LC/MS/MS quantitative analysis. At different concentrations of the compounds to be tested, the percentage of residual activity is obtained by the ratio of the production of LPA18:2 to that in the absence of the compounds to be tested, thereby calculating IC50 values.
# Experiment procedures: blank plasma was derived from at least 6 individual people. The compounds to be tested were diluted from stock solution in 3-fold dilution gradient, to produce 8 concentrations of working solution (with zero) in series. 10 μL of the melting blank plasma samples were taken and iced methanol solution containing internal standard (LPA 17:0) was added to it, so that the mixture directedly performed protein precipitation, which served as a system control sample. 2 μL of the working solution in different concentration was taken and 198 μL of blank human plasma was added, which was incubated with a concentration of 0 to 10 μM. The samples were placed at an incubater containing 5% CO2 at 37° C., and incubated for 2 hours. When the incubation was completed, 10 μL of plasma sample was taken and appropriate volume of iced methanol solution containing internal standard (LPA 17:0) was added into it, so that the mixture directedly performed protein precipitation. The precipitation was centrifuged to take supernatant. LPA 18:2 was detected by LC/MS/MS and IC50 values were analyzed and calculated by software, seeing Table 2.
row,IC50 [nM],SMILES
1,100 to 500,"CCc1nc2sc(N3C[C@@H]4C[C@H]3CN4CC(=O)N3CC(C#N)C3)nn2c1N(C)c1nc(-c2ccc(F)cc2)c(C#N)s1 [Example 59, 2-{[6-ethyl-2-((1S,4S)-5-(2-(3-cyanoazetidin-1-yl)-2-oxoethyl)-2,5-diazabicyclo[2.2.1]heptan-2-yl)imidazo[2,1-b][1,3,4]thiadiazol-5-yl](methyl)amino}-4-(4-fluorophenyl)thiazole-5-carbonitrile]"
2,500 to 1000,"CCc1nc2sc(N3CCN(C(N)=O)CC3)nn2c1N(C)c1nc(-c2ccc(F)cc2)c(C#N)s1 [Example 7, 4-{5-[(5-cyano-4-(4-fluorophenyl)thiazol-2-yl)(methyl)amino]-6-ethylimidazo[2,1-b][1,3,4]thiadiazol-2-yl}piperazine-1-carboxamide]"
3,100 to 500,"CCc1nc2sc(N3C[C@H](C)N(CC(=O)N4CC(O)C4)[C@@H](C)C3)nn2c1N(C)c1nc(-c2ccc(F)cc2)c(C#N)s1 (relative stereo) [Example 73, trans-2-{[6-ethyl-2-(4-(2-(3-hydroxyazetidin-1-yl)-2-oxoethyl)-3,5-dimethylpiperazin-1-yl)imidazo[2,1-b][1,3,4]thiadiazol-5-yl](methyl)amino}-4-(4-fluorophenyl)thiazole-5-carbonitrile]"
4,0.01 to 100,CCc1nc2sc(N3CC(N(C)CC(=O)N4CC(O)C4)C3)nn2c1N(C)c1nc(-c2ccc(F)cc2)c(C#N)s1 [Example 63]
5,100 to 500,"CCc1nc2sc(N3CC4CN(CC(=O)N5CC(C#N)C5)CC4C3)nn2c1N(C)c1nc(-c2ccc(F)cc2)c(C#N)s1 (centres unmarked) [Example 57, 2-{[6-ethyl-2-(5-(2-(3-cyanoazetidin-1-yl)-2-oxoethyl)hexahydropyrrolo[3,4-c]pyrrol-2(1H)-yl)imidazo[2,1-b][1,3,4]thiadiazol-5-yl](methyl)amino}-4-(4-fluorophenyl)thiazole-5-carbonitrile]"
6,0.01 to 100,"CCc1nc2sc(N3CCN(CC(=O)N4CC(O)C4)C[C@H]3C)nn2c1N(C)c1nc(-c2ccc(F)cc2)c(C#N)s1 [Example 66, (R)-2-{[6-ethyl-2-(4-(2-(3-hydroxyazetidin-1-yl)-2-oxoethyl)-2-methylpiperazin-1-yl)imidazo[2,1-b][1,3,4]thiadiazol-5-yl](methyl)amino}-4-(4-fluorophenyl)thiazole-5-carbonitrile]"
7,≥ 1000,"CCc1nc2sc(N3CC4CC3CO4)nn2c1N(C)c1nc(-c2ccc(F)cc2)c(C#N)s1 (centres unmarked) [Example 60, 2-{[2-(2-oxa-5-azabicyclo[2.2.1]heptan-5-yl)-6-ethylimidazo[2,1-b][1,3,4]thiadiazol-5-yl](methyl)amino}-4-(4-fluorophenyl)thiazole-5-carbonitrile]"
8,100 to 500,"CCc1nc2sc(N3CC4CCN(CC(=O)N5CC(O)C5)C4C3)nn2c1N(C)c1nc(-c2ccc(F)cc2)c(C#N)s1 (centres unmarked) [Example 62, 2-{[6-ethyl-2-(1-(2-(3-hydroxyazetidin-1-yl)-2-oxoethyl)hexahydropyrrolo[3,4-b]pyrrol-5(1H)-yl)imidazo[2,1-b][1,3,4]thiadiazol-5-yl](methyl)amino}-4-(4-fluorophenyl)thiazole-5-carbonitrile]"
9,100 to 500,"CCc1nc2sc(N3CCC(C(=O)N4CC(O)C4)CC3)nn2c1N(C)c1nc(-c2ccc(F)cc2)c(C#N)s1 [Example 79, 2-{[6-ethyl-2-(4-(3-hydroxyazetidin-1-carbonyl)piperidin-1-yl)imidazo[2,1-b][1,3,4]thiadiazol-5-yl](methyl)amino}-4-(4-fluorophenyl)thiazole-5-carbonitrile]"
10,100 to 500,"CCc1nc2sc(N3CCN(CC(=O)N4CC(O)C4)C4(CC4)C3)nn2c1N(C)c1nc(-c2ccc(F)cc2)c(C#N)s1 [Example 71, 2-{[6-ethyl-2-(4-(2-(3-hydroxyazetidin-1-yl)-2-oxoethyl)-4,7-diazaspiro[2.5]octan-7-yl)imidazo[2,1-b][1,3,4]thiadiazol-5-yl](methyl)amino}-4-(4-fluorophenyl)thiazole-5-carbonitrile]"
11,0.01 to 100,"CCc1nc2sc(N3CCN(CC(=O)N4CC(O)C4)C[C@@H]3C)nn2c1N(C)c1nc(-c2ccc(F)cc2)c(C#N)s1 [Example 67, (S)-2-{[6-ethyl-2-(4-(2-(3-hydroxyazetidin-1-yl)-2-oxoethyl)-2-methylpiperazin-1-yl)imidazo[2,1-b][1,3,4]thiadiazol-5-yl](methyl)amino}-4-(4-fluorophenyl)thiazole-5-carbonitrile]"
12,100 to 500,CCc1nc2sc(N3CCC(N(C)CC(=O)NCC(=O)O)C3)nn2c1N(C)c1nc(-c2ccc(F)cc2)c(C#N)s1 (centres unmarked) [Example 51]
13,100 to 500,"CCc1nc2sc(N3CCC4(CN(CC(=O)N5CC(O)C5)C4)C3)nn2c1N(C)c1nc(-c2ccc(F)cc2)c(C#N)s1 [Example 54, 2-{[6-ethyl-2-(2-(2-(3-hydroxyazetidin-1-yl)-2-oxoethyl)-2,6-diazaspiro[3.4]octane-6-yl)imidazo[2,1-b][1,3,4]thiadiazol-5-yl](methyl)amino}-4-(4-fluorophenyl)thiazole-5-carbonitrile]"
14,0.01 to 100,"CCc1nc2sc(N3CCN(CC(=O)N4CC(O)C4)[C@@H](C)C3)nn2c1N(C)c1nc(-c2ccc(F)cc2)c(C#N)s1 [Example 68, (S)-2-{[6-ethyl-2-(4-(2-(3-hydroxyazetidin-1-yl)-2-oxoethyl)-3-methylpiperazin-1-yl)imidazo[2,1-b][1,3,4]thiadiazol-5-yl](methyl)amino}-4-(4-fluorophenyl)thiazole-5-carbonitrile]"
15,100 to 500,"CCc1nc2sc(N3CC4(CCN(CC(=O)N5CC(O)C5)C4)C3)nn2c1N(C)c1nc(-c2ccc(F)cc2)c(C#N)s1 [Example 52, 2-{[6-ethyl-2-(6-(2-(3-hydroxyazetidin-1-yl)-2-oxoethyl)-2,6-diazaspiro[3.4]octan-2-yl)imidazo[2,1-b][1,3,4]thiadiazol-5-yl](methyl)amino}-4-(4-fluorophenyl)thiazole-5-carbonitrile]"
16,100 to 500,"CCc1nc2sc(N3C[C@@H](C)N(CC(=O)N4CC(O)C4)[C@@H](C)C3)nn2c1N(C)c1nc(-c2ccc(F)cc2)c(C#N)s1 [Example 72, cis-2-{[6-ethyl-2-(4-(2-(3-hydroxyazetidin-1-yl)-2-oxoethyl)-3,5-dimethylpiperazin-1-yl)imidazo[2,1-b][1,3,4]thiadiazol-5-yl](methyl)amino}-4-(4-fluorophenyl)thiazole-5-carbonitrile]"
17,0.01 to 100,"CCc1nc2sc(N3CC[C@@H](NCC(=O)N4CC(O)C4)C3)nn2c1N(C)c1nc(-c2ccc(F)cc2)c(C#N)s1 [Example 80, (R)-2-{[6-ethyl-2-(3-((2-(3-hydroxyazetidin-1-yl)-2-oxoethyl)amino)pyrrolidin-1-yl)imidazo[2,1-b][1,3,4]thiadiazol-5-yl](methyl)amino}-4-(4-fluorophenyl)thiazol-5-carbonitrile]"
18,100 to 500,CCOC(=O)CN(C)C1CCN(c2nn3c(N(C)c4nc(-c5ccc(F)cc5)c(C#N)s4)c(CC)nc3s2)C1 (centres unmarked) [Example 48]
19,500 to 1000,"CCc1nc2sc(N3CCC(N(C)CC(=O)O)C3)nn2c1N(C)c1nc(-c2ccc(F)cc2)c(C#N)s1 (centres unmarked) [Example 49, 2-{[1-(5-((5-cyano-4-(4-fluorophenyl)thiazol-2-yl)(methyl)amino)-6-ethylimidazo[2,1-b][1,3,4]thiadiazol-2-yl)pyrrolidin-3-yl](methyl)amino}acetic acid]"
20,0.01 to 100,"CCc1nc2sc(N3CC4CN(CC(=O)N5CC(O)C5)CC4C3)nn2c1N(C)c1nc(-c2ccc(F)cc2)c(C#N)s1 (centres unmarked) [Example 56, 2-{[6-ethyl-2-(5-(2-(3-hydroxyazetidin-1-yl)-2-oxoethyl)hexahydropyrrolo[3,4-c]pyrrol-2(1H)-yl)imidazo[2,1-b][1,3,4]thiadiazol-5-yl](methyl)amino}-4-(4-fluorophenyl)thiazole-5-carbonitrile]"
21,0.01 to 100,"CCc1nc2sc(N3CC[C@@H](N(C)C(C)C(=O)N4CC(O)C4)C3)nn2c1N(C)c1nc(-c2ccc(F)cc2)c(C#N)s1 (stereo partly drawn) [Example 78, 2-{[6-ethyl-2-((3R)-3-((1-(3-hydroxyazetidin-1-yl)-1-oxopropan-2-yl)(methyl)amino)pyrrolidin-1-yl)imidazo[2,1-b][1,3,4]thiadiazol-5-yl](methyl)amino}-4-(4-fluorophenyl)thiazol-5-carbonitrile]"

row,SMILES,IC50 [nM]
1,"CCc1nc2sc(N3CC4CCC(C3)N4CC(=O)N3CC(O)C3)nn2c1N(C)c1nc(-c2ccc(F)cc2)c(C#N)s1 [Example 70, 2-{[6-ethyl-2-(8-(2-(3-hydroxyazetidin-1-yl)-2-oxoethyl)-3,8-diazabicyclo[3.2.1]octan-3-yl)imidazo[2,1-b][1,3,4]thiadiazol-5-yl](methyl)amino}-4-(4-fluorophenyl)thiazole-5-carbonitrile]",100 to 500
2,"CCc1nc2sc(N3CC4CC(C3)N4CC(=O)N3CC(O)C3)nn2c1N(C)c1nc(-c2ccc(F)cc2)c(C#N)s1 [Example 61, 2-{[6-ethyl-2-(6-(2-(3-hydroxyazetidin-1-yl)-2-oxoethyl)-3,6-diazabicyclo[3.1.1]heptan-3-yl)imidazo[2,1-b][1,3,4]thiadiazol-5-yl](methyl)amino}-4-(4-fluorophenyl)thiazole-5-carbonitrile]",100 to 500
